Experimental data: paper PMC11088877, “AMP-activated protein kinase can be allosterically activated by ADP but AMP remains the key activating ligand” (Biochemical Journal, 2024)
Where “and” joins values, the source holds several entries; their conditions need not be identical. Equal entries are not always repeated.

Experiments:
Assay type in all cases: biochemical
[1] = biological target: T1, unphosphorylated human α2β2γ1 complex (WT) (Homo sapiens, UniProt P54619+P54646); experiment: AMPK activation and Thr172 phosphorylation by the LKB1:STRADα:MO25α complex, WT; details: 300 µM nucleotide, 200 µM Mg.ATP2−
T1 construct: made in house; host or cells: Escherichia coli
T1 sequence (P54619 whole entry): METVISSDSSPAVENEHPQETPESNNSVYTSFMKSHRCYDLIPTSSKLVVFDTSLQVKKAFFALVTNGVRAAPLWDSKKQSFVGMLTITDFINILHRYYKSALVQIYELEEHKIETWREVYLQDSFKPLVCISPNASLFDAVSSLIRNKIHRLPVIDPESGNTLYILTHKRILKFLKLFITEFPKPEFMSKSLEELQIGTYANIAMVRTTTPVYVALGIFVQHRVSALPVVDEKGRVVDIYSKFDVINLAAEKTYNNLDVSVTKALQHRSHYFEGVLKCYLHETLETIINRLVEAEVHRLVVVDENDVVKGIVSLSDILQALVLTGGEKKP
T1 sequence (P54646 whole entry): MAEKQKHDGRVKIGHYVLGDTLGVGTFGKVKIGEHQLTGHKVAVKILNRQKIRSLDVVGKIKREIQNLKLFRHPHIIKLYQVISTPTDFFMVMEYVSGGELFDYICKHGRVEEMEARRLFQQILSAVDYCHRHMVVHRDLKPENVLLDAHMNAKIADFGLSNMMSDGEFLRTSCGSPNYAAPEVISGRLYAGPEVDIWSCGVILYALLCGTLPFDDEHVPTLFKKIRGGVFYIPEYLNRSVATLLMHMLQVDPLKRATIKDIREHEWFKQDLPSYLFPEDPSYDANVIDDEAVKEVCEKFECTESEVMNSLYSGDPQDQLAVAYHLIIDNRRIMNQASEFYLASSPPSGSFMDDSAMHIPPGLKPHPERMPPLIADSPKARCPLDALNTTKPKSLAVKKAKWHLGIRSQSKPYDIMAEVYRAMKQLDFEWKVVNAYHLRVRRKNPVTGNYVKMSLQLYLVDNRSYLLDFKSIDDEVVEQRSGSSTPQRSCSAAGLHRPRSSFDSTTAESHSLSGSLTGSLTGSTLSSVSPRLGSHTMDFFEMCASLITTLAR
T1 sequence (O43741 whole entry partner): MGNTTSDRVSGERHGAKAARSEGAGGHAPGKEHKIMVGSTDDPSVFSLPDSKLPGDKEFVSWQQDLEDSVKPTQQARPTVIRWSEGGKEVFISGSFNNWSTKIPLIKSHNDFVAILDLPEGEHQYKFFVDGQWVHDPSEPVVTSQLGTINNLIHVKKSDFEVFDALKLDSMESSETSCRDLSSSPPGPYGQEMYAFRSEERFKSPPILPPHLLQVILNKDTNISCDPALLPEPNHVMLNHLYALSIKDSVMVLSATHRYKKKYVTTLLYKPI
Description: (§1) The relative roles of the three CBS sites in the other two mechanisms of activation of AMPK by AMP or ADP, i.e. promotion of Thr172 phosphorylation by LKB1, and protection against Thr172 dephosphorylation by protein phosphatases, have not been examined previously. As expected, incubation of the α2β2γ1 AMPK complex with a fixed, limiting amount of purified LKB1:STRADα:MO25α complex in the presence of 200 µM Mg.ATP^2− caused a large degree of activation (Figure 5A) and phosphorylation (Figure 5B) of AMPK (unphosphorylated α2β2γ1 complex), which were stimulated more than 2-fold by 300 µM AMP and 1.6-fold by 300 µM ADP.
(§2) Figure 5. Effects of AMP or ADP on AMPK activation and Thr172 phosphorylation by the LKB1:STRADα:MO25α complex. Unphosphorylated human α2β2γ1 complexes (WT, or with L129D/V130D, V276G/L277G or I312G mutations affecting CBS1, CBS3 or CBS4 respectively) were incubated with ATP and a fixed concentration of the LKB1:STRADα:MO25α complex in the presence or absence of AMP or ADP (both 300 µM), as described in the Materials and methods section. After the incubation aliquots were withdrawn for (A) AMPK assay or (B) Western blots. […] For (B), due to a limit on the number of lanes that could be run on one gel, single replicates from the triplicate assays were analysed. […]

[2] = biological target: T2, human α2β2γ1 complex, CBS3 mutant (V276G/L277G) (Homo sapiens, UniProt P54619+P54646, L277G/V276G); experiment: Allosteric activation of CBS3 mutant human α2β2γ1 AMPK complex
T2 construct: made in house; host or cells: Escherichia coli
T2 sequence (P54619 whole entry V276G/L277G): as the sequence (P54619 whole entry) above, with V276G, L277G counted along it
T2 sequence (P54646 whole entry): as the sequence (P54646 whole entry) above
T2 sequence (O43741 whole entry partner): as the sequence (O43741 whole entry partner) above
From the text: To study allosteric activation with a more well-defined AMPK complex, and to study the effects of mutations in individual adenine nucleotide-binding sites on the γ subunit, we expressed a human α2β2γ1 complex in Escherichia coli and purified it utilizing the polyhistidine tag at the N-terminus of the α2 subunit. […] However, it had not been co-expressed with an N-myristoyl transferase so would not have been N-myristoylated on the β2 subunit. The complex was expressed not only with the WT γ1 sequence but also with mutations affecting hydrophobic residues previously shown to be involved in binding of the adenine moieties of nucleotides at CBS1 (L129D/V130D), CBS3 (V276G/L277G) and CBS4 (I312G). All four complexes co-purified as heterotrimeric 1:1:1 complexes as expected, and were phosphorylated and activated equally well either by CaMKK2 or the LKB1: STRADα:MO25α complex (Supplementary Figure S2). For the studies described below we phosphorylated Thr172 using a GST-tagged CaMKK2 and repurified AMPK using size exclusion chromatography and a glutathione-Sepharose column, which remove CaMKK2.
Figure 4. Allosteric activation of WT and mutant human α2β2γ1 AMPK complex by AMP and ADP at three different concentrations of ATP. The α2β2γ1 complex was phosphorylated on Thr172 prior to assay using CaMKK2. The γ1 subunit was either (A/E): WT; (B/F): a CBS1 mutant (L129D/V130D); (C/G): a CBS3 mutant (V276G/L277G); (D/H): a CBS4 mutant (I312G). Results are means of duplicate assays ± SD; error bars are not shown if they were smaller than the symbols used for mean values. Assays and curve fitting were as in Figure 1 at either 0.2 mM (left panels) or 5 mM (right panels) ATP. Best-fit values for all parameters used to generate the curves are listed in Supplementary Table S1.
Sources of antibodies were as described: pThr172 (AMPK-α: Cell Signaling Technologies, Danvers, MA, U.S.A., Cat# 2535), AMPK-α2 [22]. Rat liver AMPK was purified as described previously. Plasmid encoding human (His)6-tagged AMPK (α2β2γ1, bacterially expressed) generated as in [23], was a gift from AstraZeneca, Cambridge, U.K. The L129D/V130D (CBS1), V276G/L277G (CBS3) and I312G (CBS4) mutations in the α2β2γ1 complex were generated using the Quikchange II site-directed mutagenesis kit (Agilent Technologies) and confirmed by DNA sequencing. Human GST-tagged α2 kinase domain (1–310), LKB1:STRAD-α:MO25-α complexes, GST-tagged CaMKK2 [26], and PPM1A (PP2Cα) were produced as described. Bacterially expressed heterotrimers were activated by phosphorylation of Thr172 by GST-tagged CaMKK2 in the presence of ATP, and CaMKK2 was subsequently removed by passage through glutathione-Sepharose. Human GST-tagged α2 kinase domain was activated in a similar manner except that human (His)6-tagged LKB1:STRAD-α:MO25-α complex was used and removed after activation via passage through a His-Trap column. Recombinant human 5′-nucleotidase, CD73, Cat # 5795-EN-01, was from R&D systems (Minneapolis, MN, U.S.A.).
AMPK assays measured the transfer of radioactivity from [γ-^33P]ATP to a peptide substrate, which was separated from unreacted ATP by binding to P81 paper. This assay was described previously except that we used [γ-^33P] rather than [γ-^32P]ATP. In some assays (specified in Figure legends) the concentration of ATP was increased from 0.2 to 1 or 5 mM ATP, with MgCl2 concentrations maintained at a constant 4.8 mM excess above the concentration of ATP [19]. Where allosteric activation by AMP or ADP was being studied, we used the SAMS peptide as substrate. For all other assays the AMARA peptide was used.

[3] = biological target: T3, human α2β2γ1 complex, CBS4 mutant (I312G) (Homo sapiens, UniProt P54619+P54646, I312G); experiment: AMPK activation and Thr172 phosphorylation by the LKB1 complex, CBS4 mutant; details: 300 µM nucleotide, 200 µM ATP
T3 construct: made in house; host or cells: Escherichia coli
T3 sequence (P54619 whole entry I312G): as the sequence (P54619 whole entry) above, with I312G counted along it
T3 sequence (P54646 whole entry): as the sequence (P54646 whole entry) above
T3 sequence (O43741 whole entry partner): as the sequence (O43741 whole entry partner) above
Description: as §1, §2

In the case of `Nc1ncnc2c1ncn2[C@@H]1O[C@H](COP(=O)(O)O)[C@@H](O)[C@H]1O` [AMP], the “stimulation of activation and phosphorylation of AMPK by LKB1:STRADα:MO25α complex” value [1] is reported as “more than 2 fold”, the “increase of EC50 relative to WT” value ([2]; α2β2γ1 CBS3 mutant vs WT, 5 mM ATP) is reported as 10- to 20 fold and the “Activation (maximal)” value ([2]; α2β2γ1 CBS3 mutant, 0.2 mM ATP) is reported as 1.2 (1.1-1.2) fold. For the same molecule, the EC50 ([2]; α2β2γ1 CBS3 mutant, 0.2 mM ATP) was 0.0029 mM, the IC50 ([2]; α2β2γ1 CBS3 mutant, 0.2 mM ATP) was 6.1 mM and the IC50/EC50 ([2]; α2β2γ1 CBS3 mutant, 0.2 mM ATP) was 2100. For the same molecule, the “activation over basal remaining” value ([2]; α2β2γ1 CBS3 mutant, 0.2 mM ATP) was 20%, the “Activation (maximal)” value ([2]; α2β2γ1 CBS3 mutant, 5.0 mM ATP) was 2.0- to 2.5 fold and 2.3 (2.1-2.7) fold and the EC50 ([2]; α2β2γ1 CBS3 mutant, 5.0 mM ATP) was 0.37 mM. For the same molecule, the IC50 ([2]; α2β2γ1 CBS3 mutant, 5.0 mM ATP) was 40 mM, the IC50/EC50 ([2]; α2β2γ1 CBS3 mutant, 5.0 mM ATP) was 110 and the “effect of nucleotide on activation/phosphorylation by LKB1 in the mutant” value [3] was “abolished”.
With `Nc1ncnc2c1ncn2[C@@H]1O[C@H](COP(=O)(O)OP(=O)(O)O)[C@@H](O)[C@H]1O` [ADP] the “stimulation of activation and phosphorylation of AMPK by LKB1:STRADα:MO25α complex” value [1] was 1.6 fold, the “Activation (maximal)” value ([2]; α2β2γ1 CBS3 mutant, 0.2 mM ATP) was “did not cause allosteric activation and none” and the IC50 ([2]; α2β2γ1 CBS3 mutant, 0.2 mM ATP) was 0.5 mM. The “Activation (maximal)” value ([2]; α2β2γ1 CBS3 mutant, 5.0 mM ATP) was “essentially abolished allosteric activation”, the IC50 ([2]; α2β2γ1 CBS3 mutant, 5.0 mM ATP) was 7.6 mM and the “effect of nucleotide on activation/phosphorylation by LKB1 in the mutant” value [3] was “abolished”.
